Measured values: article PMC5843698, “Use of QSPR Modeling to Characterize In Vitro Binding of Drugs to a Gut-Restricted Polymer” (Pharmaceutical Research, 2018)
Where a name gives a salt, the structure may show the parent alone. Read-outs that look alike come from different tables or passages of the source.

What was measured:
[1] = logP determination by titration in octanol/water
From the text: The shift of the aqueous pKas in the presence of octanol was used to determine the logP of the different species.

[2] = logD determination (liquid-liquid distribution chromatography, octanol-coated column)
Method: The logD of the sample was determined at pH 7.4 by liquid-liquid distribution chromatography. Compounds were eluted from an octanol-coated column with an octanol-saturated mobile phase adjusted to pH 7.4. Compound retention time was converted to logD value by comparison to the retention time of a set of standard compounds with well-characterized logD octanol values.

[3] = In vitro binding assay: free test drug recovered after 3 h incubation with and without patiromer in SGF, acetate buffer or SIF; conditions: for SGF / SIF / AB: QSPR input data; for SGF: test matrix SGF; for SIF: test matrix SIF; for AB: test matrix acetate buffer (AB); for In Vitro Binding (% Drug Recovered) SGF (pH 3): simulated gastric fluid, final pH 3.0; for In Vitro Binding (% Drug Recovered) SIF (pH 5.9): simulated intestinal fluid, final pH 5.9; for In vitro patiromer binding category: strong, weak or non-binding
Method: Patiromer binding to test compounds was assessed by comparing free test drug concentrations after incubation with and without patiromer. […] Test drug concentrations were based on the lowest clinically relevant dose of test drug in US prescribing information in a 1-L volume.
Three test buffers were used: simulated gastric fluid without added pepsin (SGF; initial pH 1.2), acetate buffer (AB; initial pH 4.5), and simulated intestinal fluid without added pancreatin (SIF; initial pH 6.8). Tween-20 was included at 0.05% v/v as a surfactant to aid in solubilizing test drugs.
Binding studies were performed in a 10 ml volume in 16×100 mm borosilicate tubes, and incubated for 3 h at 37°C with end-over-end rotation at ~25 rpm. After incubation, patiromer was allowed to settle for 5 min; supernatants were withdrawn and passed through a 0.45 μm filter, collected by centrifugation, and transferred to chromatography vials for analysis. Control samples containing buffer and drug, but without patiromer, were subjected to the same experimental process. For 24 of the test drugs, a reversed phase high performance liquid chromatography method was used for analysis in the three test matrices. […] During method qualification, we conducted a pretest of each drug in test media alone to assure no significant loss in recovery during the incubation or filtration steps. If there was not sufficient recovery compared to theoretical concentration, the drug could not be evaluated in that medium. The recovered drug in the presence or absence of patiromer was used to calculate percent recovery of test drug, and represents the geometric mean of 12 replicates.
To measure binding, each compound was co-incubated with patiromer using the highest single clinical dose of polymer and the minimum clinical dose of test drug. […] Following co-incubation, patiromer and any bound drug were removed by centrifugation and the remaining unbound (recovered) drug was measured in the supernatant.

[4] = pKa determination by titration in aqueous solution (UV or pH monitored)
Method: Test drug pKas were determined experimentally by titration in aqueous solution. Ionization state was monitored by UV or pH. Reported values are the average of three independent determinations. […] Drug concentration was in the range 17–31 μM (UV) or ≥0.4 mM (pH).

[5] = octanol-coated column with octanol-saturated mobile phase, pH 3
[6] = octanol-coated column with octanol-saturated mobile phase, pH 4.5
[7] = octanol-coated column with octanol-saturated mobile phase, pH 5.9
[8] = acetate buffer pH 4.5, patiromer 25.2 g/L, 3 h, 37°C, geometric mean of 12 replicates
[9] = across SGF, AB and SIF test matrices
[10] = patiromer 25.2 g/L, 3 h, 37°C, geometric mean of 12 replicates
[11] = aqueous solution, pKa (A = acid), acidic group, average of three determinations
[12] = aqueous solution, pKa (B = base), basic group, average of three determinations

Compound | logP ([1]; octanol/water) | chromatographic logD [2, 5] | chromatographic logD [2, 6] | chromatographic logD [2, 7] | SGF [3] | SIF [3] | AB [3] | In Vitro Binding (% Drug Recovered) Acetate Buffer (pH 4.5) [3, 8] [%] | Binding categories (level of in vitro interaction with patiromer) [3, 9] | In Vitro Binding (% Drug Recovered) SGF (pH 3) [3, 10] [%] | In Vitro Binding (% Drug Recovered) SIF (pH 5.9) [3, 10] [%] | further results
CC(=O)Oc1ccccc1C(=O)O [Aspirin] | 0.9 | 0.78 | -0.14 | -1.5 | 100.7 | 99.9 | 99.8 | 99.8 | No binding (<30% drug bound in any test matrix) | 100.7 | 99.9 | –
CC1(C)S[C@@H]2[C@H](NC(=O)[C@H](N)c3ccc(O)cc3)C(=O)N2[C@H]1C(=O)O [Amoxicillin] | -0.02 | 1.65 | 0.46 | 0 | – | 99.4 | 99.2 | 99.2 | No binding (<30% drug bound in any test matrix) | – | 99.4 | pKa (A = acid) ([4]; acidic group, average of three determinations): 2.60; pKa [4, 11]: 9.59; pKa [4, 12]: 7.35
CC1=C(C(=O)O)N2C(=O)[C@@H](NC(=O)[C@H](N)c3ccccc3)[C@H]2SC1 [Cephalexin] | – | – | – | – | 88.7 | 104.4 | 95 | 95 | No binding (<30% drug bound in any test matrix) | 88.7 | 104.4 | In vitro patiromer binding category [3]: non-binding
C[C@@H](NCCCc1cccc(C(F)(F)F)c1)c1cccc2ccccc12 [Cinacalcet HCl] | 5.58 | 2.41 | 2.44 | 2.83 | 13.4 | 18.3 | 19.3 | 19.3 | – | 13.4 | 18.3 | pKa [4, 12]: 8.85; In vitro patiromer binding category [3]: Strong patiromer binding
O=C([O-])[O-].[Li+].[Li+] [Lithium carbonate] | – | – | – | – | – | – | – | 88.8 | – | 93.3 | 56.9 | Binding categories (level of in vitro interaction with patiromer) [3]: Weak binder (key: No binding: <30% drug bound in any test matrix; Weak binder: 30–55% bound in one test matrix; Strong binder: >55% bound in two or three test matrices)
CC(=O)CC(c1ccccc1)c1c(O)c2ccccc2oc1=O (racemic) [Warfarin (R/S), Warfarin] | – | – | – | – | – | – | – | – | – | – | – | pKa [4]: 4.94; logP [1]: 3.25; chromatographic logD ([2]; pH 3): 3.25; chromatographic logD ([2]; pH 4.5): 3.12; chromatographic logD ([2]; pH 5.9): 2.25
Cc1ncc(C[n+]2csc(CCO)c2C)c(N)n1 [Thiamin] | < -1.5 | < -1.5 | < -1.5 | < -1.5 | – | – | – | 50.7 | – | 28.8 | 42.9 | pKa [4, 12]: 4.88
COC(=O)[C@H](c1ccccc1Cl)N1CCc2sccc2C1 [Clopidogrel bisulfate] | 4.06 | 2.4 | 3.67 | 4.03 | 66 | – | – | – | Weak binder (30–55% bound in one test matrix) | 66 | – | pKa [4, 12]: 4.66; In vitro patiromer binding category [3]: Weak binders
NS(=O)(=O)c1cc(C(=O)O)c(NCc2ccco2)cc1Cl [Furosemide] | – | – | – | – | 67.3 | 79.1 | 94.5 | 94.5 | Weak binder (30–55% bound in one test matrix) | 67.3 | 79.1 | –
NCCCC[C@H](N[C@@H](CCc1ccccc1)C(=O)O)C(=O)N1CCC[C@H]1C(=O)O [Lisinopril] | -0.51 | -0.85 | -0.52 | -0.54 | 77.9 | 98.5 | 100.7 | 100.7 | No binding (<30% drug bound in any test matrix) | 77.9 | 98.5 | pKa [4, 11]: 1.63; pKa [4, 12]: 7.13
COc1ccc(-n2nc(C(N)=O)c3c2C(=O)N(c2ccc(N4CCCCC4=O)cc2)CC3)cc1 [Apixaban] | < 1.4 | < 1.4 | < 1.4 | < 1.4 | 75.6 | 97.8 | 97.3 | 97.3 | No binding (<30% drug bound in any test matrix) | 75.6 | 97.8 | –
O=C(NC[C@H]1CN(c2ccc(N3CCOCC3=O)cc2)C(=O)O1)c1ccc(Cl)s1 [Rivaroxaban] | 1.43 | 1.43 | 1.43 | 1.43 | 71.9 | 95.1 | 92.9 | 92.9 | No binding (<30% drug bound in any test matrix) | 71.9 | 95.1 | –
CC(C)c1c(C(=O)Nc2ccccc2)c(-c2ccccc2)c(-c2ccc(F)cc2)n1CC[C@@H](O)C[C@@H](O)CC(=O)O [Atorvastatin calcium] | – | – | – | – | 91.2 | 101.1 | 93.3 | 93.3 | No binding (<30% drug bound in any test matrix) | 91.2 | 101.1 | –
CCCCC(=O)N(Cc1ccc(-c2ccccc2-c2nnn[nH]2)cc1)[C@H](C(=O)O)C(C)C [Valsartan] | – | – | – | – | 86.4 | 98 | 101.4 | 101.4 | No binding (<30% drug bound in any test matrix) | 86.4 | 98 | In vitro patiromer binding category [3]: non-binding
Digoxin | – | – | – | – | – | 103.4 | 109.3 | 109.3 | No binding (<30% drug bound in any test matrix) | – | 103.4 | –
Cc1cc2nc3c(=O)[nH]c(=O)nc-3n(C[C@H](O)[C@H](O)[C@H](O)CO)c2cc1C [Riboflavin] | < -1.5 | < -1.5 | < -1.5 | < -1.5 | – | – | – | – | – | – | – | pKa [4, 11]: 9.87
CC(=O)S[C@@H]1CC2=CC(=O)CC[C@]2(C)[C@H]2CC[C@@]3(C)[C@@H](CC[C@@]34CCC(=O)O4)[C@H]12 [Spironolactone] | 2.53 | 2.53 | 2.53 | 2.53 | 78.7 | 96.8 | 98.6 | 98.6 | No binding (<30% drug bound in any test matrix) | 78.7 | 96.8 | –
COCCc1ccc(OCC(O)CNC(C)C)cc1 (stereo not drawn) [Metoprolol tartrate] | 1.91 | -4.7 | -3.2 | -1.8 | – | – | – | – | – | – | – | –
CCOC(=O)C1=C(COCCN)NC(C)=C(C(=O)OC)C1c1ccccc1Cl (stereo not drawn) [Amlodipine besylate] | 3.39 | 1.44 | 1.44 | 1.46 | – | – | – | – | – | – | – | –
Oc1ncnc2[nH]ncc12 [Allopurinol] | -0.3 | -0.3 | -0.3 | -0.3 | 85.7 | 94.2 | 90.1 | 90.1 | No binding (<30% drug bound in any test matrix) | 85.7 | 94.2 | pKa [4, 11]: 9.18
Cc1cnc(C(=O)NCCc2ccc(S(=O)(=O)NC(=O)NC3CCCCC3)cc2)cn1 [Glipizide] | – | – | – | – | 72.9 | 98.5 | 96.5 | – | No binding (<30% drug bound in any test matrix) | 72.9 | 98.5 | In Vitro Binding (% Drug Recovered) Acetate Buffer (pH 4.5) ([3]; pH 4.5): 96.5%
O=C1NC(=O)C(c2ccccc2)(c2ccccc2)N1 [Phenytoin sodium] | 2.43 | 2.43 | 2.43 | 2.43 | 83.4 | 92.8 | 90.2 | 90.2 | No binding (<30% drug bound in any test matrix) | 83.4 | 92.8 | pKa [4, 11]: 8.18
